Reference: patent US20240109853A1 (Shanghai Yao Yuan Biotechnology Co., Ltd., priority 2020, published 2024)
Counter-ions that a name gives are not always drawn. Like-named read-outs stand apart in the source and are kept apart here.

Target: ALPK1 (Homo sapiens (Human), UniProt Q96QP1)
Assay: ALPK1 in vitro kinase assay (HTRF of TIFA phosphorylation)
Format: biochemical
[1] = ALPK1 2 nM, TIFA substrate, ADP-Heptose activator, HTRF readout

Chain of ALPK1 (Q96QP1 whole entry): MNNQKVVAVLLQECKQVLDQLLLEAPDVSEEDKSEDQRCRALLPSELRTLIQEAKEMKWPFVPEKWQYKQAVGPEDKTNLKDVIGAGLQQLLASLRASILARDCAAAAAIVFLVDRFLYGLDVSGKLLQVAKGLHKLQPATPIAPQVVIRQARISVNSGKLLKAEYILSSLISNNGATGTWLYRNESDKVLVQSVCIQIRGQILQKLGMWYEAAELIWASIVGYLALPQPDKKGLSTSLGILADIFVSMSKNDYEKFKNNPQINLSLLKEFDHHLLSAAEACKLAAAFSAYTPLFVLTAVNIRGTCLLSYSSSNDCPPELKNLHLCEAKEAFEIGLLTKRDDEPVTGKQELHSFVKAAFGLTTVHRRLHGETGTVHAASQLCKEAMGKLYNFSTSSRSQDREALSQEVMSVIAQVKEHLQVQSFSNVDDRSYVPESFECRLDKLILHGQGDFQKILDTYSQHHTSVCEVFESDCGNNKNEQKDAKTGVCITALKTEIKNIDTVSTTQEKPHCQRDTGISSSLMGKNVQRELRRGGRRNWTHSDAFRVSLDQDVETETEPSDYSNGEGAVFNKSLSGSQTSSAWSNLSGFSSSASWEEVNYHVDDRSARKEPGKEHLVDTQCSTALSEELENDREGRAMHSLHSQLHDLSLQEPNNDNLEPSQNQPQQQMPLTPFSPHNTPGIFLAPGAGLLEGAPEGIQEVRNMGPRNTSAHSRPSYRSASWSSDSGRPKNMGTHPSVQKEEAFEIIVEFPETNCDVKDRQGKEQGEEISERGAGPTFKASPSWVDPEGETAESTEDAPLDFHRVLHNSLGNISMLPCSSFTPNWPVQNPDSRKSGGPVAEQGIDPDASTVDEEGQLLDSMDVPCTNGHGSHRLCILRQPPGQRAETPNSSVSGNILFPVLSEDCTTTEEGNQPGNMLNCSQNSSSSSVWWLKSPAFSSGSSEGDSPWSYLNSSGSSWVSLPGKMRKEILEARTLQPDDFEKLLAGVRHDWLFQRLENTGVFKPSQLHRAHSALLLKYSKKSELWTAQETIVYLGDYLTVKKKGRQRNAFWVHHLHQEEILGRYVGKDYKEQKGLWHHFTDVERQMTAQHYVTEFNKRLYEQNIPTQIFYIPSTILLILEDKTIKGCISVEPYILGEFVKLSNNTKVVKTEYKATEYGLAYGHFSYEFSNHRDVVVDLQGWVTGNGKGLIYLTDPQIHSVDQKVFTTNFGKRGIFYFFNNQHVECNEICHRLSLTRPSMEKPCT

Structure (SMILES) | IC50 [1] [µM] | IC50 [µM]
COCC(C)(c1ccc(OC)cc1)c1csc(NC(=O)c2c(F)cc(N3CCNCC3)cc2F)n1 (centres unmarked) [Example C021, 2,6-difluoro-N-(4-(1-methoxy-2-(4-methoxyphenyl)propan-2-yl)thiazol-2-yl)-4-(piperazin-1-yl)benzamide] | 0.044 | 
CC(C)(c1ccc(Br)cc1)c1csc(NC(=O)c2ccc(N3CCNCC3)nc2)n1 [Example B035, N-(4-(2-(4-bromophenyl)propan-2-yl)thiazol-2-yl)-6-(piperazin-1-yl)nicotinamide] | 0.075 | 
COc1ccc(C(C)(C)c2csc(NC(=O)c3ccc(CN4CCNCC4)cc3)n2)cc1 [Example B040, N-(4-(2-(4-methoxyphenyl)propan-2-yl)thiazol-2-yl)-4-(piperazin-1-ylmethyl)benzamide] | 0.093 | 
C#C[C@](C)(c1ccc(Cl)cc1)c1nc(NC(=O)c2c(F)cc(N3CCNCC3)cc2F)sc1Cl (stereo in doubt) [Example C049, N-(5-chloro-4-(2-(4-chlorophenyl)but-3-yn-2-yl)thiazol-2-yl)-2,6-difluoro-4-(piperazin-1-yl)benzamide] | 4.52 | 
COc1ccc(C(C)(C)c2csc(NC(=O)c3ccc(N4CCNCC4)nc3)n2)cc1 [Example B042, N-(4-(2-(4-methoxyphenyl)propan-2-yl)thiazol-2-yl)-6-(piperazin-1-yl)nicotinamide] | 0.086 | 
COC[C@@](C)(c1ccc(Cl)cc1)c1csc(NC(=O)c2c(F)cc(N3CCNCC3)cc2F)n1 [Example C025, (S)-N-(4-(2-(4-chlorophenyl)-1-methoxypropan-2-yl)thiazol-2-yl)-2,6-difluoro-4-(piperazin-1-yl)benzamide] | 0.008 | 
CC(C)(c1ccc(Br)cc1)c1csc(NC(=O)NCc2cnc(NCCN3CCNCC3)nc2)n1 [Example A206, 1-(4-(2-(4-bromophenyl)propan-2-yl)thiazol-2-yl)-3-((2-((2-(piperazin-1-yl)ethyl)amino)pyrimidin-5-yl)methyl)urea] |  | 0.068
Cc1nc(CNC(=O)Nc2nc(C(C)(C)c3ccc(Br)cc3)cs2)cc(N2CCNCC2)n1 [Example A095, 1-(4-(2-(4-bromophenyl)propan-2-yl)thiazol-2-yl)-3-((2-methyl-6-(piperazin-1-yl)pyrimidin-4-yl)methyl)urea] |  | 0.032
COc1ccc(C(C)(C)c2csc(NC(=O)c3ccc(CN4CCNCC4C)cc3)n2)cc1 (centres unmarked) [Example B026, N-(4-(2-(4-methoxyphenyl)propan-2-yl)thiazol-2-yl)-4-((2-methylpiperazin-1-yl)methyl)benzamide] | 0.127 | 
COc1ccc(C(C)(C)c2csc(NC(=O)NCc3ccc(N4CCC(N)C4)nc3)n2)cc1 (centres unmarked) [Example A199, 1-((6-(3-aminopyrrolidin-1-yl)pyridin-3-yl)methyl)-3-(4-(2-(4-methoxyphenyl)propan-2-yl)thiazol-2-yl)urea] |  | 0.034
COc1ccc(C(C)(C)c2csc(NC(=O)c3ccc(C4(O)CCNCC4)cc3)n2)cc1 [Example B049, 4-(4-hydroxypiperidin-4-yl)-N-(4-(2-(4-methoxyphenyl)propan-2-yl)thiazol-2-yl)benzamide hydrochloride] | 0.459 | 
COc1ccc(C(C)(C)c2csc(NC(=O)c3ccc(N4CCN(CCO)CC4)cc3)n2)cc1 [Example B006, 4-(4-(2-hydroxyethyl)piperazin-1-yl)-N-(4-(2-(4-methoxyphenyl)propan-2-yl)thiazol-2-yl)benzamide] | 0.595 | 
COc1ccc(CNC(=O)Nc2nc(C(C)(C)c3ccc(Br)cc3)cs2)cc1F [Example A107, 1-(4-(2-(4-bromophenyl)propan-2-yl)thiazol-2-yl)-3-(3-fluoro-4-methoxybenzyl)urea] |  | 0.216
CC(C)(c1ccc(Br)cc1)c1csc(NC(=O)NCc2cc(F)c(N3CCNCC3)c(F)c2)n1 [Example B037, 1-(4-(2-(4-bromophenyl)propan-2-yl)thiazol-2-yl)-3-(3,5-difluoro-4-(piperazin-1-yl)benzyl)urea] | 0.023 | 
COc1ccc(C(C)(C)c2csc(NC(=O)c3cccc(OCCCN4CCNCC4)c3)n2)cc1 [Example B023, N-(4-(2-(4-methoxyphenyl)propan-2-yl)thiazol-2-yl)-3-(3-(piperazin-1-yl)propoxy)benzamide] | 0.15 | 
COc1ccc(C(C)(C)c2csc(NC(=O)c3ccc(N4CCC(O)C4)cc3)n2)cc1 (centres unmarked) [Example B009, 4-(3-hydroxypyrrolidin-1-yl)-N-(4-(2-(4-methoxyphenyl)propan-2-yl)thiazol-2-yl)benzamide] | 0.951 | 
COC[C@](C)(c1ccc(Cl)cc1)c1csc(NC(=O)c2c(F)cc(N3CCNCC3)cc2F)n1 [Example C024, (R)-N-(4-(2-(4-chlorophenyl)-1-methoxypropan-2-yl)thiazol-2-yl)-2,6-difluoro-4-(piperazin-1-yl)benzamide] | 0.13 | 
COc1ccc(C(C)(C)c2csc(NC(=O)c3ccc(C(=O)NC4CCN(C)CC4)cc3)n2)cc1 [Example B030, N1-(4-(2-(4-methoxyphenyl)propan-2-yl)thiazol-2-yl)-N4-(1-methylpiperidin-4-yl)terephthalamide] | 0.155 | 
CC(C)(c1ccc(Br)cc1)c1csc(NC(=O)c2ccc(N3CCNCC3)cc2)n1 [Example B016, N-(4-(2-(4-bromophenyl)propan-2-yl)thiazol-2-yl)-4-(piperazin-1-yl)benzamide] | 0.06 | 
C#C[C@](C)(c1ccc(Cl)cc1)c1csc(NC(=O)c2c(F)cc(N3CCNCC3CO)cc2F)n1 (stereo in doubt) [Example B098, N-[4-[1-(4-chlorophenyl)-1-methyl-prop-2-ynyl]thiazol-2-yl]-2,6-difluoro-4-[2-(hydroxymethyl)piperazin-1-yl]benzamide] | 0.02 | 
C#CC(C)(c1ccc(Cl)cc1)c1csc(NC(=O)c2c(F)ccc(OC)c2F)n1 (centres unmarked) [Example B064, N-(4-(2-(4-chlorophenyl)but-3-yn-2-yl)thiazol-2-yl)-2,6-difluoro-3-methoxybenzamide] | 0.054 | 
C#C[C@@](C)(c1ccc(Cl)cc1)c1nc(NC(=O)c2c(F)cc(N3CCNCC3)cc2F)sc1Cl (stereo in doubt) [Example C050, N-(5-chloro-4-(2-(4-chlorophenyl)but-3-yn-2-yl)thiazol-2-yl)-2,6-difluoro-4-(piperazin-1-yl)benzamide] | 0.923 | 
COc1ccc(C(C)(C)c2csc(NC(=O)c3cccc(CN4CCN(CCO)CC4)c3)n2)cc1 [Example B018, 3-((4-(2-hydroxyethyl)piperazin-1-yl)methyl)-N-(4-(2-(4-methoxyphenyl)propan-2-yl)thiazol-2-yl)benzamide] | 0.187 | 
C#CC(C)(c1ccc(Cl)cc1)c1csc(NC(=O)c2ccc(N3CCNCC3)c(OC)c2)n1 (centres unmarked) [Example B066, N-(4-(2-(4-chlorophenyl)but-3-yn-2-yl)thiazol-2-yl)-3-methoxy-4-(piperazin-1-yl)benzamide] | 0.184 | 
C#C[C@](C)(c1ccc(Cl)cc1)c1csc(NC(=O)c2c(F)cc(N3CCN(C)CC3)cc2F)n1 [Example C010, (R)-N-(4-(2-(4-chlorophenyl)but-3-yn-2-yl)thiazol-2-yl)-2,6-difluoro-4-(4-methylpiperazin-1-yl)benzamide] | 0.056 | 
CC(C)(c1ccc(Br)cc1)c1csc(NC(=O)NCc2cnc(N3CCNC(=O)C3)nc2)n1 [Example A113, 1-(4-(2-(4-bromophenyl)propan-2-yl)thiazol-2-yl)-3-((2-(3-oxopiperazin-1-yl)pyrimidin-5-yl)methyl)urea] |  | 0.126
